How the values were obtained:
S. aureus (ATCC 29213) = assay: Zone of inhibition screen, 96 well agar array format; format: cell-based; design: scale not given here
In short: (§1)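 Read-out is antibacterial activity on agar laid out as a 96-well array; every compound went through all strains of the panel.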

E. faecalis (CL 4877) = assay: as above; format: cell-based; design: scale not given here; details: zone of inhibition relative to 1 mg/ml stock solution of p-chlorobiphenylvancomycin
In short: as §1

[1] = zone of inhibition relative to 1 mg/ml stock solution of p-chlorobiphenylvancomycin
[2] = zone of inhibition relative to 1 mg/ml p-chlorobiphenylvancomycin

Row | Structure (SMILES) | zone score, S. aureus ATCC 29213 (S. aureus (ATCC 29213); [1]) | zone score, E. faecalis CL 4877 (E. faecalis (CL 4877)) | zone score, S. aureus ATCC 29213 (S. aureus (ATCC 29213); [2])
1 | C#CCC(NC(C)=O)C(=O)NC1C(=O)NC(CC(N)=O)C(=O)NC2C(=O)NC3C(=O)NC(C(=O)NC(C(=O)O)c4cc(O)cc(O)c4-c4cc3ccc4O)C(O)c3ccc(c(Cl)c3)Oc3cc2cc(c3OC2OC(CO)C(O)C(O)C2OC2CC(C)(NCc3ccc(-c4ccc(Cl)cc4)cc3)C(O)C(C)O2)Oc2ccc(cc2Cl)C1O (mixture of isomers) [Compound 177] | 2 | 2 | 
2 | CC1OC(OC2C(Oc3c4cc5cc3Oc3ccc(cc3Cl)C(O)C3NC(=O)C(NC(=O)C5NC(=O)C(CC(N)=O)NC(=O)C(NC(=O)C(N)CC(=O)OC(C)(C)C)C(O)c5ccc(c(Cl)c5)O4)c4ccc(O)c(c4)-c4c(O)cc(O)cc4C(C(=O)O)NC3=O)OC(CO)C(O)C2O)CC(C)(NCc2ccc(-c3ccc(Cl)cc3)cc2)C1O (centres unmarked) [Compound 3] | 2 | 2 | 
3 | C[C@H]1O[C@H](O[C@H]2[C@H](Oc3c4cc5cc3Oc3ccc(cc3Cl)[C@@H](O)[C@@H](NC(=O)C(N)CC3CCCCC3)C(=O)N[C@@H](CC(N)=O)C(=O)N[C@H]5C(=O)N[C@H]3C(=O)N[C@H](C(=O)N[C@@H](C(=O)O)c5cc(O)cc(O)c5-c5cc3ccc5O)[C@H](O)c3ccc(c(Cl)c3)O4)O[C@H](CO)[C@@H](O)[C@@H]2O)C[C@@](C)(NCc2ccc(-c3ccc(Cl)cc3)cc2)[C@H]1O (some centres unmarked) [Compound 4] | 2 | 2 | 
4 | CC(NCCCCC(N)C(=O)NC1C(=O)NC(CC(N)=O)C(=O)NC2C(=O)NC3C(=O)NC(C(=O)NC(C(=O)O)c4cc(O)cc(O)c4-c4cc3ccc4O)C(O)c3ccc(c(Cl)c3)Oc3cc2cc(c3OC2OC(CO)C(O)C(O)C2OC2CC(C)(NCc3ccc(-c4ccc(Cl)cc4)cc3)C(O)C(C)O2)Oc2ccc(cc2Cl)C1O)=C1C(=O)CC(C)(C)CC1=O (centres unmarked) [Compound 39] | 2 | 2 | 
5 | CC(=O)NCSCC(N)C(=O)NC1C(=O)NC(CC(N)=O)C(=O)NC2C(=O)NC3C(=O)NC(C(=O)NC(C(=O)O)c4cc(O)cc(O)c4-c4cc3ccc4O)C(O)c3ccc(c(Cl)c3)Oc3cc2cc(c3OC2OC(CO)C(O)C(O)C2OC2CC(C)(NCc3ccc(-c4ccc(Cl)cc4)cc3)C(O)C(C)O2)Oc2ccc(cc2Cl)C1O (centres unmarked) [Compound 49] | 2 | 2 | 
6 | CC1OC(OC2C(Oc3c4cc5cc3Oc3ccc(cc3Cl)C(O)C3NC(=O)C(NC(=O)C5NC(=O)C(CC(N)=O)NC(=O)C(NC(=O)C(N)CCCNC(=N)N)C(O)c5ccc(c(Cl)c5)O4)c4ccc(O)c(c4)-c4c(O)cc(O)cc4C(C(=O)O)NC3=O)OC(CO)C(O)C2O)CC(C)(NCc2ccc(-c3ccc(Cl)cc3)cc2)C1O (centres unmarked) [Compound 90] | 2 | 2 | 
7 | CC1OC(OC2C(Oc3c4cc5cc3Oc3ccc(cc3Cl)C(O)C(NC(=O)C3(C(N)=O)CC3)C(=O)NC(CC(N)=O)C(=O)NC5C(=O)NC3C(=O)NC(C(=O)NC(C(=O)O)c5cc(O)cc(O)c5-c5cc3ccc5O)C(O)c3ccc(c(Cl)c3)O4)OC(CO)C(O)C2O)CC(C)(NCc2ccc(-c3ccc(Cl)cc3)cc2)C1O (centres unmarked) [Compound 98] | 2 | 2 | 
8 | CC(=O)Nc1ccc(C(=O)NC2C(=O)NC(CC(N)=O)C(=O)NC3C(=O)NC4C(=O)NC(C(=O)NC(C(=O)O)c5cc(O)cc(O)c5-c5cc4ccc5O)C(O)c4ccc(c(Cl)c4)Oc4cc3cc(c4OC3OC(CO)C(O)C(O)C3OC3CC(C)(NCc4ccc(-c5ccc(Cl)cc5)cc4)C(O)C(C)O3)Oc3ccc(cc3Cl)C2O)cc1NC(C)=O (centres unmarked) [Compound 104] | 2 | 2 | 
9 | CC(=O)NCCCC(=O)NC1C(=O)NC(CC(N)=O)C(=O)NC2C(=O)NC3C(=O)NC(C(=O)NC(C(=O)O)c4cc(O)cc(O)c4-c4cc3ccc4O)C(O)c3ccc(c(Cl)c3)Oc3cc2cc(c3OC2OC(CO)C(O)C(O)C2OC2CC(C)(NCc3ccc(-c4ccc(Cl)cc4)cc3)C(O)C(C)O2)Oc2ccc(cc2Cl)C1O (centres unmarked) [Compound 107] | 2 | 2 | 
10 | CC(=O)NC(C)C(=O)NC1C(=O)NC(CC(N)=O)C(=O)NC2C(=O)NC3C(=O)NC(C(=O)NC(C(=O)O)c4cc(O)cc(O)c4-c4cc3ccc4O)C(O)c3ccc(c(Cl)c3)Oc3cc2cc(c3OC2OC(CO)C(O)C(O)C2OC2CC(C)(NCc3ccc(-c4ccc(Cl)cc4)cc3)C(O)C(C)O2)Oc2ccc(cc2Cl)C1O (centres unmarked) [Compound 110] | 2 | 2 | 
11 | CSCCC(NC(C)=O)C(=O)NC1C(=O)NC(CC(N)=O)C(=O)NC2C(=O)NC3C(=O)NC(C(=O)NC(C(=O)O)c4cc(O)cc(O)c4-c4cc3ccc4O)C(O)c3ccc(c(Cl)c3)Oc3cc2cc(c3OC2OC(CO)C(O)C(O)C2OC2CC(C)(NCc3ccc(-c4ccc(Cl)cc4)cc3)C(O)C(C)O2)Oc2ccc(cc2Cl)C1O (centres unmarked) [Compound 115] | 2 | 2 | 
12 | CC(=O)N1CC(O)CC1C(=O)NC1C(=O)NC(CC(N)=O)C(=O)NC2C(=O)NC3C(=O)NC(C(=O)NC(C(=O)O)c4cc(O)cc(O)c4-c4cc3ccc4O)C(O)c3ccc(c(Cl)c3)Oc3cc2cc(c3OC2OC(CO)C(O)C(O)C2OC2CC(C)(NCc3ccc(-c4ccc(Cl)cc4)cc3)C(O)C(C)O2)Oc2ccc(cc2Cl)C1O (centres unmarked) [Compound 121] | 2 | 2 | 
13 | CC1OC(OC2C(Oc3c4cc5cc3Oc3ccc(cc3Cl)C(O)C3NC(=O)C(NC(=O)C5NC(=O)C(CC(N)=O)NC(=O)C(NC(=O)CN(CCO)CCO)C(O)c5ccc(c(Cl)c5)O4)c4ccc(O)c(c4)-c4c(O)cc(O)cc4C(C(=O)O)NC3=O)OC(CO)C(O)C2O)CC(C)(NCc2ccc(-c3ccc(Cl)cc3)cc2)C1O (centres unmarked) [Compound 130] | 2 | 2 | 
14 | CC(NC(=O)OC(C)(C)C)C(=O)NCC(=O)NCC(=O)NC1C(=O)NC(CC(N)=O)C(=O)NC2C(=O)NC3C(=O)NC(C(=O)NC(C(=O)O)c4cc(O)cc(O)c4-c4cc3ccc4O)C(O)c3ccc(c(Cl)c3)Oc3cc2cc(c3OC2OC(CO)C(O)C(O)C2OC2CC(C)(NCc3ccc(-c4ccc(Cl)cc4)cc3)C(O)C(C)O2)Oc2ccc(cc2Cl)C1O (centres unmarked) [Compound 131] | 2 | 2 | 
15 | CC(NC(=O)OC(C)(C)C)C(=O)NCC(=O)N(C)CC(=O)NC1C(=O)NC(CC(N)=O)C(=O)NC2C(=O)NC3C(=O)NC(C(=O)NC(C(=O)O)c4cc(O)cc(O)c4-c4cc3ccc4O)C(O)c3ccc(c(Cl)c3)Oc3cc2cc(c3OC2OC(CO)C(O)C(O)C2OC2CC(C)(NCc3ccc(-c4ccc(Cl)cc4)cc3)C(O)C(C)O2)Oc2ccc(cc2Cl)C1O (centres unmarked) [Compound 132] | 2 | 2 | 
16 | CC1OC(OC2C(Oc3c4cc5cc3Oc3ccc(cc3Cl)C(O)C3NC(=O)C(NC(=O)C5NC(=O)C(CC(N)=O)NC(=O)C(NC(=O)CCC(NC(=O)OC(C)(C)C)C(N)=O)C(O)c5ccc(c(Cl)c5)O4)c4ccc(O)c(c4)-c4c(O)cc(O)cc4C(C(=O)O)NC3=O)OC(CO)C(O)C2O)CC(C)(NCc2ccc(-c3ccc(Cl)cc3)cc2)C1O (centres unmarked) [Compound 137] | 2 | 2 | 
17 | CC1OC(OC2C(Oc3c4cc5cc3Oc3ccc(cc3Cl)C(O)C3NC(=O)C(NC(=O)C5NC(=O)C(CC(N)=O)NC(=O)C(NC(=O)CNC(=O)CNC(=O)CNC(=O)OC(C)(C)C)C(O)c5ccc(c(Cl)c5)O4)c4ccc(O)c(c4)-c4c(O)cc(O)cc4C(C(=O)O)NC3=O)OC(CO)C(O)C2O)CC(C)(NCc2ccc(-c3ccc(Cl)cc3)cc2)C1O (centres unmarked) [Compound 139] | 2 | 2 | 
18 | CC1OC(OC2C(Oc3c4cc5cc3Oc3ccc(cc3Cl)C(O)C(NC(=O)C(C)(C)NC(N)=O)C(=O)NC(CC(N)=O)C(=O)NC5C(=O)NC3C(=O)NC(C(=O)NC(C(=O)O)c5cc(O)cc(O)c5-c5cc3ccc5O)C(O)c3ccc(c(Cl)c3)O4)OC(CO)C(O)C2O)CC(C)(NCc2ccc(-c3ccc(Cl)cc3)cc2)C1O (centres unmarked) [Compound 190] | 2 |  | 
19 | CSCCC(NC=O)C(=O)NC1C(=O)NC(CC(N)=O)C(=O)NC2C(=O)NC3C(=O)NC(C(=O)NC(C(=O)O)c4cc(O)cc(O)c4-c4cc3ccc4O)C(O)c3ccc(c(Cl)c3)Oc3cc2cc(c3OC2OC(CO)C(O)C(O)C2OC2CC(C)(NCc3ccc(-c4ccc(Cl)cc4)cc3)C(O)C(C)O2)Oc2ccc(cc2Cl)C1O (centres unmarked) [Compound 196] | 2 |  | 
20 | CC1OC(OC2C(Oc3c4cc5cc3Oc3ccc(cc3Cl)C(O)C3NC(=O)C(NC(=O)C5NC(=O)C(CC(N)=O)NC(=O)C(NC(=O)CCC(=O)NN(C)C)C(O)c5ccc(c(Cl)c5)O4)c4ccc(O)c(c4)-c4c(O)cc(O)cc4C(C(=O)O)NC3=O)OC(CO)C(O)C2O)CC(C)(NCc2ccc(-c3ccc(Cl)cc3)cc2)C1O (centres unmarked) [Compound 203] | 2 |  | 
21 | CC(C)=C(N)C(=O)NC1C(=O)NC(CC(N)=O)C(=O)NC2C(=O)NC3C(=O)NC(C(=O)NC(C(=O)O)c4cc(O)cc(O)c4-c4cc3ccc4O)C(O)c3ccc(c(Cl)c3)Oc3cc2cc(c3OC2OC(CO)C(O)C(O)C2OC2CC(C)(NCc3ccc(-c4ccc(Cl)cc4)cc3)C(O)C(C)O2)Oc2ccc(cc2Cl)C1O (centres unmarked) [Compound 216] |  |  | 2
22 | CC1OC(OC2C(Oc3c4cc5cc3Oc3ccc(cc3Cl)C(O)C(NC(=O)C3(N)CC3)C(=O)NC(CC(N)=O)C(=O)NC5C(=O)NC3C(=O)NC(C(=O)NC(C(=O)O)c5cc(O)cc(O)c5-c5cc3ccc5O)C(O)c3ccc(c(Cl)c3)O4)OC(CO)C(O)C2O)CC(C)(NCc2ccc(-c3ccc(Cl)cc3)cc2)C1O (centres unmarked) [Compound 218] |  |  | 2
23 | CC1OC(OC2C(Oc3c4cc5cc3Oc3ccc(cc3Cl)C(O)C3NC(=O)C(NC(=O)C5NC(=O)C(CC(N)=O)NC(=O)C(NC(=O)C(=O)c5ccco5)C(O)c5ccc(c(Cl)c5)O4)c4ccc(O)c(c4)-c4c(O)cc(O)cc4C(C(=O)O)NC3=O)OC(CO)C(O)C2O)CC(C)(NCc2ccc(-c3ccc(Cl)cc3)cc2)C1O (centres unmarked) [Compound 239] |  |  | 2
24 | CC1OC(OC2C(Oc3c4cc5cc3Oc3ccc(cc3Cl)C(O)C(NC(=O)C(F)(F)C(F)(F)C(F)(F)C(F)(F)F)C(=O)NC(CC(N)=O)C(=O)NC5C(=O)NC3C(=O)NC(C(=O)NC(C(=O)O)c5cc(O)cc(O)c5-c5cc3ccc5O)C(O)c3ccc(c(Cl)c3)O4)OC(CO)C(O)C2O)CC(C)(NCc2ccc(-c3ccc(Cl)cc3)cc2)C1O (centres unmarked) [Compound 311] |  |  | 2

— US6518243B1, “Desleucyl glycopeptide antibiotics and methods of making same” (Trustees of Princeton University, priority 1999, dated 2003)
